Experimental data reported in ChEMBL document CHEMBL4052724, “Influence of the cellular environment on ligand binding kinetics at membrane-bound targets” (Bioorg Med Chem Lett, 2017).

Tests used:
[1] = target: T1, Type-1 angiotensin II receptor (Homo sapiens) (UniProt P30556); experiment: Displacement of [3H]-candesartan from human AT1 receptor expressed in CHO cells assessed as residence time at 1.5 nM pre-incubated with cells followed by compound washout and subsequent addition of [3H]-candesartan up to 60 mins; format: cell-based
T1 sequence (whole entry): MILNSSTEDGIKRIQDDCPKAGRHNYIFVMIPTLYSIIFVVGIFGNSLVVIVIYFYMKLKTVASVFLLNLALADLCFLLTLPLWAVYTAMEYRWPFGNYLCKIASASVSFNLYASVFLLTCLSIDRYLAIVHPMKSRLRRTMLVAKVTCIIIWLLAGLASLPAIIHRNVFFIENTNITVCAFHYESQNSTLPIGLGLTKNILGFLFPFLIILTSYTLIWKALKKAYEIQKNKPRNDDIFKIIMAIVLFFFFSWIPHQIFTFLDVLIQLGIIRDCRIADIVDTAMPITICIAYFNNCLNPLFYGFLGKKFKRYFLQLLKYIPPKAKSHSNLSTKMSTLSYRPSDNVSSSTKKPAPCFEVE

[2] = target: T1, Type-1 angiotensin II receptor (Homo sapiens); experiment: Binding affinity to human AT1 receptor expressed in CHO cells assessed as dissociation rate constant at 1.5 nM incubated for 60 mins followed by compound washout in presence of losartan; format: cell-based
[3] = target: T1, Type-1 angiotensin II receptor (Homo sapiens); experiment: Antagonist activity at human AT1 receptor expressed in CHO cells assessed as reduction in angiotensin 2-induced inositol phosphate accumulation by measuring residence time constant preincubated with cells followed by compound washout in presence of losartan and subsequent addition of angiotensin 2 for 5 mins; format: functional, cell-based
[4] = target: T1, Type-1 angiotensin II receptor (Homo sapiens); experiment: Binding affinity to human AT1 receptor expressed in CHO cells assessed as dissociation rate constant at 1.5 nM incubated for 60 mins followed by compound washout; format: cell-based
[5] = target: T1, Type-1 angiotensin II receptor (Homo sapiens); experiment: Binding affinity to human AT1 receptor expressed in CHO cells assessed as residence time at 1.5 nM incubated for 60 mins followed by compound washout in presence of losartan; format: cell-based
[6] = target: T1, Type-1 angiotensin II receptor (Homo sapiens); experiment: Antagonist activity at human AT1 receptor expressed in CHO cells assessed as reduction in angiotensin 2-induced inositol phosphate accumulation by measuring residence time constant preincubated with cells followed by compound washout and subsequent addition of angiotensin 2 for 5 mins; format: functional, cell-based
[7] = target: T1, Type-1 angiotensin II receptor (Homo sapiens); experiment: Displacement of [3H]-candesartan from human AT1 receptor expressed in CHO cells assessed as dissociation rate constant at 1.5 nM pre-incubated with cells followed by compound washout and subsequent addition of [3H]-candesartan up to 60 mins; format: cell-based
[8] = target: T1, Type-1 angiotensin II receptor (Homo sapiens); experiment: (§1) Antagonist activity at human AT1 receptor expressed in CHO cells assessed as reduction in angiotensin 2-induced inositol phosphate accumulation by measuring dissociation rate constant preincubated with cells followed by compound washout and subsequent addition of angiotensin 2 for 5 mins; format: functional, cell-based
[9] = target: T1, Type-1 angiotensin II receptor (Homo sapiens); experiment: Binding affinity to human AT1 receptor expressed in CHO cells assessed as residence time at 1.5 nM incubated for 60 mins followed by compound washout; format: cell-based
[10] = target: T1, Type-1 angiotensin II receptor (Homo sapiens); experiment: as §1, with “washout in presence of losartan” for “washout”; format: functional, cell-based
[11] = target: T1, Type-1 angiotensin II receptor (Homo sapiens); experiment: Binding affinity to human AT1 receptor expressed in CHO cells assessed as residence time at 1.5 nM incubated for 60 mins measured after isotopic dilution; format: cell-based
[12] = target: T1, Type-1 angiotensin II receptor (Homo sapiens); experiment: Binding affinity to human AT1 receptor expressed in CHO cells assessed as dissociation rate constant at 1.5 nM incubated for 60 mins measured after isotopic dilution; format: cell-based
[13] = target: T1, Type-1 angiotensin II receptor (Homo sapiens); experiment: Binding affinity to human AT1 receptor expressed in CHO cells assessed as dissociation rate constant at 3 nM incubated for 60 mins measured after isotopic dilution; format: cell-based
[14] = target: T1, Type-1 angiotensin II receptor (Homo sapiens); experiment: Displacement of [3H]-candesartan from human AT1 receptor expressed in CHO cells assessed as residence time at 100 nM pre-incubated with cells followed by compound washout and subsequent addition of [3H]-candesartan up to 60 mins; format: cell-based
[15] = target: T1, Type-1 angiotensin II receptor (Homo sapiens); experiment: Binding affinity to human AT1 receptor expressed in CHO cells assessed as residence time at 3 nM incubated for 60 mins followed by compound washout in presence of losartan; format: cell-based
[16] = target: T1, Type-1 angiotensin II receptor (Homo sapiens); experiment: Binding affinity to human AT1 receptor expressed in CHO cells assessed as residence time at 3 nM incubated for 60 mins followed by compound washout; format: cell-based
[17] = target: T1, Type-1 angiotensin II receptor (Homo sapiens); experiment: Binding affinity to human AT1 receptor expressed in CHO cells assessed as dissociation rate constant at 3 nM incubated for 60 mins followed by compound washout in presence of losartan; format: cell-based
[18] = target: T1, Type-1 angiotensin II receptor (Homo sapiens); experiment: Binding affinity to human AT1 receptor expressed in CHO cells assessed as residence time at 3 nM incubated for 60 mins measured after isotopic dilution; format: cell-based
[19] = target: T1, Type-1 angiotensin II receptor (Homo sapiens); experiment: Displacement of [3H]-candesartan from human AT1 receptor expressed in CHO cells assessed as dissociation rate constant at 100 nM pre-incubated with cells followed by compound washout and subsequent addition of [3H]-candesartan up to 60 mins; format: cell-based
[20] = target: T1, Type-1 angiotensin II receptor (Homo sapiens); experiment: Binding affinity to human AT1 receptor expressed in CHO cells assessed as dissociation rate constant at 3 nM incubated for 60 mins followed by compound washout; format: cell-based

TIME [1] [h] | K [2] [min⁻¹] | TIME [3] [h] | K [4] [min⁻¹] | TIME [5] [h] | TIME [6] [h] | K [7] [min⁻¹] | K [8] [min⁻¹] | TIME [9] [h] | K [10] [min⁻¹] | TIME [11] [h] | K [12] [min⁻¹] | K [13] [min⁻¹] | TIME [14] [h] | TIME [15] [h] | TIME [16] [h] | K [17] [min⁻¹] | TIME [18] [h] | K [19] [min⁻¹] | K [20] [min⁻¹] | SMILES
3.65 | 0.005 | 4.45 | 0.001 | 3.62 | 7.57 | 0.004 | 0.002 | 16.6 | 0.003 | 2.7 | 0.006 | – | – | – | – | – | – | – | – | CCOc1nc2cccc(C(=O)O)c2n1Cc1ccc(-c2ccccc2-c2nnn[nH]2)cc1
– | 0.049 | – | 0.028 | 0.333 | – | – | – | 0.6 | – | 0.417 | 0.041 | – | – | – | – | – | – | – | – | CCCCC(=O)N(Cc1ccc(-c2ccccc2-c2nn[nH]n2)cc1)[C@@H](C(=O)O)C(C)C
– | – | 0.8 | – | – | 1.05 | – | 0.016 | – | 0.021 | – | – | – | – | – | – | – | – | – | – | CCCCc1nc(Cl)c(C(=O)O)n1Cc1ccc(-c2ccccc2-c2nn[nH]n2)cc1
– | – | 0.283 | – | – | 0.433 | – | 0.039 | – | 0.058 | – | – | 0.104 | 0.417 | 0.15 | 0.15 | 0.101 | 0.167 | 0.04 | 0.128 | CCCCC1=NC2(CCCC2)C(=O)N1Cc1ccc(-c2ccccc2-c2nnn[nH]2)cc1
